The source of these data is PMC6272846, “Synthesis and p38 Inhibitory Activity of Some Novel Substituted N,N′-Diarylurea Derivatives” (Molecules, 2016).

The structures appear in SMILES notation.

Usually IC50 stands for the midpoint of a concentration-inhibition curve. Read a low IC50 as greater potency in that assay.

One assay deals with MAPK14/p38α (Homo sapiens, UniProt Q16539). Put plainly: p38α MAP kinase activity, phosphorylation of ATF-2 (TR-FRET). Format: biochemical. The note with it: enzyme, GFP-ATF2 substrate, 90 μM ATP. As to the method: Kinase reaction buffer was composed of 50 mM HEPES (pH 7.5), 0.01% BRIJ-35, 10 mM MgCl2 and 1 mM EGTA. Prepared MAPK14/p38α in 1× kinase buffer with concentration at 500 ng/mL. A 2-fold serial dilution was performed using 1× kinase buffer from 500 ng/mL using 16 dose points. […] The reaction was started by adding 5 μL of the GFP-ATF2(19–96) substrate and ATP solution into each well of the assay plate. The final starting concentration of MAPK14/p38α was 250ng/ml, and the final GFP-ATF2 and ATP concentrations were 0.4 μM and 90 μM, respectively. The assay plate was sealed and incubated for 1 hour at room temperature (RT). Antibody solution (1 mL) was prepared from 20 mM EDTA and 4 nM Tb-antipATF2 (pThr71) antibody in TR-FRET dilution buffer. Antibody solution (10 μL) was added into each well of the assay plate and mixed gently. The final EDTA concentration was 10 mM, and the final Tb-antipATF2 (pThr71) concentration was 2 nM. The assay plate was sealed and incubated for 30 minutes at RT.
MAPK14/p38α, sequence (Q16539 whole entry): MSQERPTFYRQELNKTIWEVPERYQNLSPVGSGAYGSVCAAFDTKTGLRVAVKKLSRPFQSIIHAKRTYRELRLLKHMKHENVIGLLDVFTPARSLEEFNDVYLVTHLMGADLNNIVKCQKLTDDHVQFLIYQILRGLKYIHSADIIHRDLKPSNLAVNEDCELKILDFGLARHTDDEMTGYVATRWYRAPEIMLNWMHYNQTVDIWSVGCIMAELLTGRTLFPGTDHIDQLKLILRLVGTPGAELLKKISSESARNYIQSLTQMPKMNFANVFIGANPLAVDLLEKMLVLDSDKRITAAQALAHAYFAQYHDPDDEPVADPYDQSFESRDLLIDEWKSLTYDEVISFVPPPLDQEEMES
Inhibitor in 0.5% DMSO (2 μL/well) at 5-fold the final assay concentration was added into a 384-well assay plate. […] MAPK14/p38α (4 μL/well) was added to each well of the 384-well assay plate and incubated for 15 min at RT. To start the reaction, substrate GFP-ATF2 (19–96) and ATP (4 μL/well) were added into kinase reaction buffer. […] The resulting TR-FRET emission ratio was plotted against the concentration of inhibitor, and the data fitted to a sigmoidal dose-response curve with a variable slope. The IC50 concentration was calculated from the curve.
(In TR-FRET formats the signal depends on donor and acceptor labels being close together.)
As to `CC(C)(C)c1cc(NC(=O)NCc2cc(F)ccc2Oc2ccc3[nH]ncc3c2)n(-c2ccc([N+](=O)[O-])cc2)n1` [25i, 1-(2-((1H-Indazol-5-yl)oxy)-5-fluorobenzyl)-3-(3-(tert-butyl)-1-(4-nitrophenyl)-1H-pyrazol-5-yl)urea], the concentration for half-maximal inhibition (IC50) was 0.00143 ± 8e-05 µM. On to `CC(C)(C)c1cc(NC(=O)Nc2ccc(Oc3ccc4[nH]ncc4c3)c3c2OCC=C3)n(-c2ccc(F)cc2)n1` [26e, 1-(5-((1H-Indazol-5-yl)oxy)-2H-chromen-8-yl)-3-(3-(tert-butyl)-1-(4-fluorophenyl)-1H-pyrazol-5-yl)urea], for which the 50% inhibitory concentration (IC50) stood at 0.00596 ± 1e-05 µM. The molecule `CC(C)(C)c1cc(NC(=O)Nc2ccc(Oc3ccc4[nH]ncc4c3)c3c2OCC=C3)n(-c2ccccc2)n1` [26b, 1-(5-((1H-Indazol-5-yl)oxy)-2H-chromen-8-yl)-3-(3-(tert-butyl)-1-phenyl-1H-pyrazol-5-yl)urea] registered an IC50 of 0.00514 ± 0.00033 µM.

Staying with this assay, now noted: enzyme; bound given in µM.
As to `Cc1ccc(-n2nc(C(C)(C)C)cc2NC(=O)Nc2ccccc2OCCN2CCOCC2)cc1` [28a, 1-(3-(tert-Butyl)-1-(p-tolyl)-1H-pyrazol-5-yl)-3-(2-(2-morpholinoethoxy)phenyl)urea], the 50% inhibitory concentration (IC50) is > 10 µM. Same read-out and setting: under `CC(C)(C)c1cc(NC(=O)Nc2ccccc2OCCN2CCOCC2)n(-c2ccccc2)n1` [28b, 1-(3-(tert-Butyl)-1-phenyl-1H-pyrazol-5-yl)-3-(2-(2-morpholinoethoxy)phenyl)urea] stands > 10 µM.

Another assay has as its system MAPKAPK2. Put plainly: Inhibition of MAPKAPK2 in GFP-MAPKAPk2_BHK cell model (nuclear translocation). Format: cell-based. The note with it: GFP-MAPKAPk2_BHK cells. The method, then: In order to study p38α inhibition in a cell system, we investigated the ability of all compounds to inhibit the phosphorylation of mitogen-activated protein-kinase-activated protein kinase 2 (MAPKAPK2). Each compound was prepared at […] concentrations (1, 3, 10 and 30 nM, 0.1 and 0.3 μM), and the percentages of inhibition were calculated from the numbers of cells after treatment with the different compounds.
GFP-MAPKAPk2_BHK cells were cultured in 96-well plates (2.0 × 10^4/100 μL/well) containing 10% heat-inactivated foetal bovine serum (FBS) and 1 mg/mL G418 at 37 °C in humidified air containing 5% CO2 for 18–24 h. The cells were washed with nutrient solution (100 μL/well) and changed to the compound liquid (100 μL/well). Experiments were set up with the control, and the compound was repeated at each concentration in three wells. The cells were cultured in 96-well plates at 37 °C in humidified air containing 5% CO2 for 90 min. The cells were washed with the dye solution (20 μL/well), and the dyed cells were held for 1 hour at room temperature in the dye liquid. Analysis of nuclear translocation and calculation of the ability of the compounds to inhibit nuclear translocation was performed using the IN Cell Analyzer 1000 Nuclear Trafficking Analysis Module System (GE, Madison, WI, USA). The cultured cells were treated with the obtained compounds in […] concentration grads (1, 3, 10 and 30 nM, 0.1 and 0.3 μM). The inhibitory percentage can be calculated using the amounts of cells after the disposition of the different compounds.
Molecule `CC(C)(C)c1cc(NC(=O)NCc2cc(F)ccc2Oc2ccc3[nH]ncc3c2)n(-c2ccc([N+](=O)[O-])cc2)n1` [25i, 1-(2-((1H-Indazol-5-yl)oxy)-5-fluorobenzyl)-3-(3-(tert-butyl)-1-(4-nitrophenyl)-1H-pyrazol-5-yl)urea] had a half-inhibitory concentration (IC50) of 0.00383 ± 0.00112 µM.

As to `CC(C)(C)c1cc(NC(=O)Nc2ccc(Oc3ccc4[nH]ncc4c3)c3c2OCC=C3)n(-c2ccc([N+](=O)[O-])cc2)n1` [26f, 1-(5-((1H-Indazol-5-yl)oxy)-2H-chromen-8-yl)-3-(3-(tert-butyl)-1-(4-nitrophenyl)-1H-pyrazol-5-yl)urea], the IC50 was 0.0412 ± 0.00146 µM. On the same count and under the same terms, for `CC(C)(C)c1cc(NC(=O)Nc2ccc(Oc3ccc4[nH]ncc4c3)c3c2OCC=C3)n(-c2ccc(F)cc2)n1` [26e, 1-(5-((1H-Indazol-5-yl)oxy)-2H-chromen-8-yl)-3-(3-(tert-butyl)-1-(4-fluorophenyl)-1H-pyrazol-5-yl)urea] the value was 0.038 ± 0.00124 µM; for `CC(C)(C)c1cc(NC(=O)Nc2ccc(Oc3ccc4[nH]ncc4c3)c3c2OCC=C3)n(-c2ccccc2)n1` [26b, 1-(5-((1H-Indazol-5-yl)oxy)-2H-chromen-8-yl)-3-(3-(tert-butyl)-1-phenyl-1H-pyrazol-5-yl)urea], 0.0223 ± 0.00188 µM; for `CC(C)(C)c1cc(NC(=O)Nc2ccc(Oc3ccc4[nH]ncc4c3)c3c2OCC=C3)n(-c2ccc(S(N)(=O)=O)cc2)n1` [26c, 4-(5-(3-(5-((1H-Indazol-5-yl)oxy)-2H-chromen-8-yl)ureido)-3-(tert-butyl)-1H-pyrazol-1-yl)benzenesulfonamide], 0.2457 ± 0.00209 µM. `Cc1ccc(-n2nc(C(C)(C)C)cc2NC(=O)Nc2ccc(Oc3ccc4[nH]ncc4c3)c3c2OCC=C3)cc1` [26a, 1-(5-((1H-Indazol-5-yl)oxy)-2H-chromen-8-yl)-3-(3-(tert-butyl)-1-(p-tolyl)-1H-pyrazol-5-yl)urea]: the concentration for half-maximal inhibition (IC50) came to 0.0607 ± 0.00231 µM.

Regarding `COc1ccc(-n2nc(C(C)(C)C)cc2NC(=O)Nc2ccc(Oc3ccc4[nH]ncc4c3)c3c2OCC=C3)cc1` [26d, 1-(5-((1H-Indazol-5-yl)oxy)-2H-chromen-8-yl)-3-(3-(tert-butyl)-1-(4-methoxyphenyl)-1H-pyrazol-5-yl)urea], the IC50 is 0.0698 ± 0.00208 µM.

The assay is the same for the next values; noted with them: GFP-MAPKAPk2_BHK cells; bound given in µM.
For the molecule `Cc1cccc(-n2nc(C(C)(C)C)cc2NC(=O)Nc2ccccc2OCCN2CCOCC2)c1` [28c, 1-(3-(tert-Butyl)-1-(m-tolyl)-1H-pyrazol-5-yl)-3-(2-(2-morpholinoethoxy)phenyl)urea], the half-inhibitory concentration (IC50) is > 10 µM. The same measure, in the same setting: for `CC(C)(C)c1cc(NC(=O)NCc2ccccc2OCCN2CCOCC2)n(-c2ccc(S(N)(=O)=O)cc2)n1` [30c, 4-(3-(tert-Butyl)-5-(3-(2-(2-morpholinoethoxy)benzyl)ureido)-1H-pyrazol-1-yl)benzenesulfonamide] the value was > 3 µM. Consider `CC(C)(C)c1cc(NC(=O)Nc2ccccc2OCCN2CCOCC2)n(-c2ccc(S(N)(=O)=O)cc2)n1` [28i, 4-(3-(tert-Butyl)-5-(3-(2-(2-morpholinoethoxy)phenyl)ureido)-1H-pyrazol-1-yl)benzenesulfonamide], for which the IC50 was > 10 µM.

On to `CC(C)(C)c1cc(NC(=O)Nc2ccccc2Oc2ccc3[nH]ncc3c2)n(-c2ccc(Br)cc2)n1` [29f, 1-(2-((1H-Indazol-5-yl)oxy)phenyl)-3-(1-(4-bromophenyl)-3-(tert-butyl)-1H-pyrazol-5-yl)urea], for which the IC50 is > 10 µM. As for `CC(C)(C)c1cc(NC(=O)Nc2ccccc2Oc2ccc3[nH]ncc3c2)n(-c2ccc(S(N)(=O)=O)cc2)n1` [29i, 4-(5-(3-(2-((1H-Indazol-5-yl)oxy)phenyl)ureido)-3-(tert-butyl)-1H-pyrazol-1-yl)benzenesulfonamide], the concentration for half-maximal inhibition (IC50) was > 10 µM. Still for that read-out and setting: under `CC(C)(C)c1cc(NC(=O)Nc2ccccc2Oc2ccc3[nH]ncc3c2)n(-c2ccc([N+](=O)[O-])cc2)n1` [29h, 1-(2-((1H-Indazol-5-yl)oxy)phenyl)-3-(3-(tert-butyl)-1-(4-nitrophenyl)-1H-pyrazol-5-yl)urea] stands > 10 µM; under `CC(C)(C)c1cc(NC(=O)NCc2ccccc2OCCN2CCOCC2)n(-c2ccc(Cl)cc2)n1` [30a, 1-(3-(tert-Butyl)-1-(4-chlorophenyl)-1H-pyrazol-5-yl)-3-(2-(2-morpholinoethoxy)benzyl)urea], > 3 µM; under `Cc1cccc(-n2nc(C(C)(C)C)cc2NC(=O)Nc2ccccc2Oc2ccc3[nH]ncc3c2)c1` [29c, 1-(2-((1H-Indazol-5-yl)oxy)phenyl)-3-(3-(tert-butyl)-1-(m-tolyl)-1H-pyrazol-5-yl)urea], > 10 µM. The same measure, in the same setting: for `CC(C)(C)c1cc(NC(=O)Nc2ccccc2Oc2ccc3[nH]ncc3c2)n(-c2ccc(F)cc2)n1` [29g, 1-(2-((1H-Indazol-5-yl)oxy)phenyl)-3-(3-(tert-butyl)-1-(4-fluorophenyl)-1H-pyrazol-5-yl)urea] the value was > 10 µM; for `COc1ccc(-n2nc(C(C)(C)C)cc2NC(=O)Nc2ccccc2OCCN2CCOCC2)cc1` [28d, 1-(3-(tert-Butyl)-1-(4-methoxyphenyl)-1H-pyrazol-5-yl)-3-(2-(2-morpholinoethoxy)phenyl)urea], > 10 µM. As to `CC(C)(C)c1cc(NC(=O)Nc2ccccc2OCCN2CCOCC2)n(-c2ccc([N+](=O)[O-])cc2)n1` [28h, 1-(3-(tert-Butyl)-1-(4-nitrophenyl)-1H-pyrazol-5-yl)-3-(2-(2-morpholinoethoxy)phenyl)urea], the 50% inhibitory concentration (IC50) was > 10 µM. For the molecule `CC(C)(C)c1cc(NC(=O)NCc2ccccc2OCCN2CCOCC2)n(-c2ccccc2)n1` [30d, 1-(3-(tert-Butyl)-1-phenyl-1H-pyrazol-5-yl)-3-(2-(2-morpholinoethoxy)benzyl)urea], the IC50 is > 3 µM. For the molecule `Cc1ccc(-n2nc(C(C)(C)C)cc2NC(=O)NCc2ccccc2OCCN2CCOCC2)cc1` [30b, 1-(3-(tert-Butyl)-1-(p-tolyl)-1H-pyrazol-5-yl)-3-(2-(2-morpholinoethoxy)benzyl)urea], the IC50 was > 3 µM. For `Cc1ccc(-n2nc(C(C)(C)C)cc2NC(=O)Nc2ccccc2OCCN2CCOCC2)cc1` [28a, 1-(3-(tert-Butyl)-1-(p-tolyl)-1H-pyrazol-5-yl)-3-(2-(2-morpholinoethoxy)phenyl)urea], the IC50 was > 10 µM. On the same count and under the same terms, for `COc1ccc(-n2nc(C(C)(C)C)cc2NC(=O)Nc2ccccc2Oc2ccc3[nH]ncc3c2)cc1` [29d, 1-(2-((1H-Indazol-5-yl)oxy)phenyl)-3-(3-(tert-butyl)-1-(4-methoxyphenyl)-1H-pyrazol-5-yl)urea] the value was > 10 µM; for `CC(C)(C)c1cc(NC(=O)Nc2ccccc2OCCN2CCOCC2)n(-c2ccc(Cl)cc2)n1` [28e, 1-(3-(tert-Butyl)-1-(4-chlorophenyl)-1H-pyrazol-5-yl)-3-(2-(2-morpholinoethoxy)phenyl)urea], > 10 µM; for `CC(C)(C)c1cc(NC(=O)Nc2ccccc2OCCN2CCOCC2)n(-c2ccc(Br)cc2)n1` [28f, 1-(1-(4-Bromophenyl)-3-(tert-butyl)-1H-pyrazol-5-yl)-3-(2-(2-morpholinoethoxy)phenyl)urea], > 10 µM.

Regarding `CC(C)(C)c1cc(NC(=O)Nc2ccccc2Oc2ccc3[nH]ncc3c2)n(-c2ccc(Cl)cc2)n1` [29e, 1-(2-((1H-Indazol-5-yl)oxy)phenyl)-3-(3-(tert-butyl)-1-(4-chlorophenyl)-1H-pyrazol-5-yl)urea], the 50% inhibitory concentration (IC50) was > 10 µM.

On to `CC(C)(C)c1cc(NC(=O)Nc2ccccc2OCCN2CCOCC2)n(-c2ccccc2)n1` [28b, 1-(3-(tert-Butyl)-1-phenyl-1H-pyrazol-5-yl)-3-(2-(2-morpholinoethoxy)phenyl)urea], for which the 50% inhibitory concentration (IC50) was > 10 µM. Take `CC(C)(C)c1cc(NC(=O)Nc2ccccc2OCCN2CCOCC2)n(-c2ccc(F)cc2)n1` [28g, 1-(3-(tert-Butyl)-1-(4-fluorophenyl)-1H-pyrazol-5-yl)-3-(2-(2-morpholinoethoxy)phenyl)urea]: the IC50 is > 10 µM.
